Reference: the supplement of paper PMC10883282

Assays:
Experiment in all cases: relative viability vs DMSO control (72 h) (fraction); higher = more viable cells
A204 = tested on: A204
In short: (§1)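 ATPLite readings, expressed as percent growth and averaged over up to triplicate wells, provided relative viability. Before reading, sarcoma cell lines seeded in 384-well plates to reach 80–90% confluence received 2.5 µl of serially diluted compound after 24 h, from source plates of 10 mM to 0.0002 mM. Plates were held 72 h at 37 °C, 5% CO2, with 0.1% DMSO as vehicle and a 5 µM positive control. The data were rescaled to 1 for full and 0 for none.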

G401 = tested on: G401
In short: as §1

HS729 = tested on: HS729
In short: as §1

HT1080 = tested on: HT1080
In short: as §1

KHOS-NP = tested on: KHOS-NP
In short: as §1

RD-ES = tested on: RD-ES
In short: as §1

SK-ES-1 = tested on: SK-ES-1
In short: as §1

SK-LMS-1 = tested on: SK-LMS-1
In short: as §1

SW684 = tested on: SW684
In short: as §1

SW872 = tested on: SW872
In short: as §1

SW982 = tested on: SW982
In short: as §1

VA-ES-BJ = tested on: VA-ES-BJ
In short: as §1

CCN(CCCOc1ccc2c(Nc3cc(CC(=O)Nc4cccc(F)c4)[nH]n3)ncnc2c1)CCOP(=O)(O)O [Barasertib]
Conditions	relative viability
A204, 0.00017 µM	1.05
A204, 0.00051 µM	1.05
A204, 0.00152 µM	1.05
A204, 0.00457 µM	1.04
A204, 0.01372 µM	0.9872
A204, 0.04115 µM	0.907
A204, 0.1235 µM	0.859
A204, 0.3704 µM	0.813
A204, 1.111 µM	0.7
A204, 3.333 µM	0.441
A204, 10 µM	0.379
G401, 0.00017 µM	0.961
G401, 0.00051 µM	0.998
G401, 0.00152 µM	0.996
G401, 0.00457 µM	0.97
G401, 0.01372 µM	0.897
G401, 0.04115 µM	0.798
G401, 0.1235 µM	0.777
G401, 0.3704 µM	0.8003
G401, 1.111 µM	0.799
G401, 3.333 µM	0.776
G401, 10 µM	0.677
HS729, 0.00017 µM	0.957
HS729, 0.00051 µM	0.934
HS729, 0.00152 µM	0.947
HS729, 0.00457 µM	0.936
HS729, 0.01372 µM	0.901
HS729, 0.04115 µM	0.934
HS729, 0.1235 µM	0.877
HS729, 0.3704 µM	0.801
HS729, 1.111 µM	0.8
HS729, 3.333 µM	0.815
HS729, 10 µM	0.804
HT1080, 0.00017 µM	1.05
HT1080, 0.00051 µM	1.04
HT1080, 0.00152 µM	1.04
HT1080, 0.00457 µM	1.04
HT1080, 0.01372 µM	1.02
HT1080, 0.04115 µM	0.977
HT1080, 0.1235 µM	0.878
HT1080, 0.3704 µM	0.89
HT1080, 1.111 µM	0.9017
HT1080, 3.333 µM	0.895
HT1080, 10 µM	0.87
KHOS-NP, 0.00017 µM	1.03
KHOS-NP, 0.00051 µM	1.03
KHOS-NP, 0.00152 µM	1.04
KHOS-NP, 0.00457 µM	1.048
KHOS-NP, 0.01372 µM	1.05
KHOS-NP, 0.04115 µM	1.072
KHOS-NP, 0.1235 µM	1.08
KHOS-NP, 0.3704 µM	1.09
KHOS-NP, 1.111 µM	1.11
KHOS-NP, 3.333 µM	1.12
KHOS-NP, 10 µM	1.13
RD-ES, 0.00017 µM	0.994
RD-ES, 0.00051 µM	0.974
RD-ES, 0.00152 µM	0.984
RD-ES, 0.00457 µM	0.951
RD-ES, 0.01372 µM	0.746
RD-ES, 0.04115 µM	0.156
RD-ES, 0.1235 µM	0.143
RD-ES, 0.3704 µM	0.14
RD-ES, 1.111 µM	0.131
RD-ES, 3.333 µM	0.117
RD-ES, 10 µM	0.127
SK-ES-1, 0.00017 µM	1.05
SK-ES-1, 0.00051 µM	1.09
SK-ES-1, 0.00152 µM	1.04
SK-ES-1, 0.00457 µM	0.98
SK-ES-1, 0.01372 µM	0.237
SK-ES-1, 0.04115 µM	0.065
SK-ES-1, 0.1235 µM	0.0636
SK-ES-1, 0.3704 µM	0.0641
SK-ES-1, 1.111 µM	0.061
SK-ES-1, 3.333 µM	0.0649
SK-ES-1, 10 µM	0.0658
SK-LMS-1, 0.00017 µM	1.02
SK-LMS-1, 0.00051 µM	1.02
SK-LMS-1, 0.00152 µM	1.03
SK-LMS-1, 0.00457 µM	1
SK-LMS-1, 0.01372 µM	1.06
SK-LMS-1, 0.04115 µM	1.01
SK-LMS-1, 0.1235 µM	0.917
SK-LMS-1, 0.3704 µM	0.855
SK-LMS-1, 1.111 µM	0.904
SK-LMS-1, 3.333 µM	0.887
SK-LMS-1, 10 µM	0.867
SW684, 0.00017 µM	1.11
SW684, 0.00051 µM	1.11
SW684, 0.00152 µM	1.15
SW684, 0.00457 µM	1.15
SW684, 0.01372 µM	1.12
SW684, 0.04115 µM	1.04
SW684, 0.1235 µM	1.06
SW684, 0.3704 µM	1.11
SW684, 1.111 µM	1.08
SW684, 3.333 µM	0.977
SW684, 10 µM	0.816
SW872, 0.00017 µM	1.01
SW872, 0.00051 µM	1.01
SW872, 0.00152 µM	0.9782
SW872, 0.00457 µM	0.985
SW872, 0.01372 µM	0.975
SW872, 0.04115 µM	0.962
SW872, 0.1235 µM	0.897
SW872, 0.3704 µM	0.918
SW872, 1.111 µM	0.912
SW872, 3.333 µM	0.892
SW872, 10 µM	0.8645
SW982, 0.00017 µM	1.06
SW982, 0.00051 µM	1.03
SW982, 0.00152 µM	1.05
SW982, 0.00457 µM	1.05
SW982, 0.01372 µM	1
SW982, 0.04115 µM	0.713
SW982, 0.1235 µM	0.5551
SW982, 0.3704 µM	0.552
SW982, 1.111 µM	0.589
SW982, 3.333 µM	0.525
SW982, 10 µM	0.468
VA-ES-BJ, 0.00017 µM	1.01
VA-ES-BJ, 0.00051 µM	1.01
VA-ES-BJ, 0.00152 µM	0.986
VA-ES-BJ, 0.00457 µM	0.998
VA-ES-BJ, 0.01372 µM	0.84
VA-ES-BJ, 0.04115 µM	0.634
VA-ES-BJ, 0.1235 µM	0.619
VA-ES-BJ, 0.3704 µM	0.647
VA-ES-BJ, 1.111 µM	0.689
VA-ES-BJ, 3.333 µM	0.68
VA-ES-BJ, 10 µM	0.727

C1=N/C2=N/c3ccc(OCCN4CCCC4)c(c3)COC/C=C/COCc3cccc(c3)C(=C1)N2 [Pacritinib]
Conditions	relative viability
A204, 0.00017 µM	1.07
A204, 0.00051 µM	1.05
A204, 0.00152 µM	1.07
A204, 0.00457 µM	1.1
A204, 0.01372 µM	1.07
A204, 0.04115 µM	1.02
A204, 0.1235 µM	0.918
A204, 0.3704 µM	0.654
A204, 1.111 µM	0.398
A204, 3.333 µM	0.0367
A204, 10 µM	0.0523
G401, 0.00017 µM	1.05
G401, 0.00051 µM	1.09
G401, 0.00152 µM	1.02
G401, 0.00457 µM	1.06
G401, 0.01372 µM	1.03
G401, 0.04115 µM	1
G401, 0.1235 µM	0.966
G401, 0.3704 µM	0.868
G401, 1.111 µM	0.552
G401, 3.333 µM	0.044
G401, 10 µM	0.0119
HS729, 0.00017 µM	1.1
HS729, 0.00051 µM	1.055
HS729, 0.00152 µM	1.03
HS729, 0.00457 µM	1
HS729, 0.01372 µM	1.02
HS729, 0.04115 µM	0.9592
HS729, 0.1235 µM	0.947
HS729, 0.3704 µM	0.928
HS729, 1.111 µM	0.698
HS729, 3.333 µM	0.576
HS729, 10 µM	0.232
HT1080, 0.00017 µM	1.09
HT1080, 0.00051 µM	1.07
HT1080, 0.00152 µM	1.09
HT1080, 0.00457 µM	1.09
HT1080, 0.01372 µM	1.08
HT1080, 0.04115 µM	1.09
HT1080, 0.1235 µM	1.08
HT1080, 0.3704 µM	1.12
HT1080, 1.111 µM	0.925
HT1080, 3.333 µM	0.169
HT1080, 10 µM	0.101
KHOS-NP, 0.00017 µM	1.09
KHOS-NP, 0.00051 µM	1.12
KHOS-NP, 0.00152 µM	1.107
KHOS-NP, 0.00457 µM	1.11
KHOS-NP, 0.01372 µM	1.125
KHOS-NP, 0.04115 µM	1.117
KHOS-NP, 0.1235 µM	1.116
KHOS-NP, 0.3704 µM	1.112
KHOS-NP, 1.111 µM	0.996
KHOS-NP, 3.333 µM	0.451
KHOS-NP, 10 µM	0.516
RD-ES, 0.00017 µM	1
RD-ES, 0.00051 µM	1.03
RD-ES, 0.00152 µM	1.04
RD-ES, 0.00457 µM	1.01
RD-ES, 0.01372 µM	1.03
RD-ES, 0.04115 µM	1
RD-ES, 0.1235 µM	0.967
RD-ES, 0.3704 µM	0.821
RD-ES, 1.111 µM	0.437
RD-ES, 3.333 µM	0.109
RD-ES, 10 µM	0.165
SK-ES-1, 0.00017 µM	1.07
SK-ES-1, 0.00051 µM	1.06
SK-ES-1, 0.00152 µM	1.06
SK-ES-1, 0.00457 µM	1.02
SK-ES-1, 0.01372 µM	1.07
SK-ES-1, 0.04115 µM	0.989
SK-ES-1, 0.1235 µM	0.945
SK-ES-1, 0.3704 µM	0.593
SK-ES-1, 1.111 µM	0.222
SK-ES-1, 3.333 µM	0.00983
SK-ES-1, 10 µM	0.00643
SK-LMS-1, 0.00017 µM	1.1
SK-LMS-1, 0.00051 µM	1.136
SK-LMS-1, 0.00152 µM	1.08
SK-LMS-1, 0.00457 µM	1.085
SK-LMS-1, 0.01372 µM	1.08
SK-LMS-1, 0.04115 µM	1.08
SK-LMS-1, 0.1235 µM	1.1
SK-LMS-1, 0.3704 µM	1.116
SK-LMS-1, 1.111 µM	0.959
SK-LMS-1, 3.333 µM	0.539
SK-LMS-1, 10 µM	0.2186
SW684, 0.00017 µM	1.14
SW684, 0.00051 µM	1.17
SW684, 0.00152 µM	1.15
SW684, 0.00457 µM	1.19
SW684, 0.01372 µM	1.15
SW684, 0.04115 µM	1.11
SW684, 0.1235 µM	0.977
SW684, 0.3704 µM	0.781
SW684, 1.111 µM	0.544
SW684, 3.333 µM	0.189
SW684, 10 µM	0.0544
SW872, 0.00017 µM	1.11
SW872, 0.00051 µM	1.08
SW872, 0.00152 µM	1.08
SW872, 0.00457 µM	1.1
SW872, 0.01372 µM	1.1
SW872, 0.04115 µM	1.06
SW872, 0.1235 µM	1.02
SW872, 0.3704 µM	0.839
SW872, 1.111 µM	0.541
SW872, 3.333 µM	0.131
SW872, 10 µM	0.0932
SW982, 0.00017 µM	1.04
SW982, 0.00051 µM	1.08
SW982, 0.00152 µM	1.12
SW982, 0.00457 µM	1.09
SW982, 0.01372 µM	1.09
SW982, 0.04115 µM	1.11
SW982, 0.1235 µM	0.923
SW982, 0.3704 µM	0.573
SW982, 1.111 µM	0.296
SW982, 3.333 µM	0.157
SW982, 10 µM	0.153
VA-ES-BJ, 0.00017 µM	1.11
VA-ES-BJ, 0.00051 µM	1.11
VA-ES-BJ, 0.00152 µM	1.09
VA-ES-BJ, 0.00457 µM	1.07
VA-ES-BJ, 0.01372 µM	1.06
VA-ES-BJ, 0.04115 µM	1.08
VA-ES-BJ, 0.1235 µM	1.02
VA-ES-BJ, 0.3704 µM	0.855
VA-ES-BJ, 1.111 µM	0.149
VA-ES-BJ, 3.333 µM	0.0927
VA-ES-BJ, 10 µM	0.0817
